Measured values from PubChem BioAssay AID2060889 (Molecular Pharmacology Branch, DTP, NCI, 2025).
Blank lines part the entries; values can stand above or below the molecule they belong to.

Tested on: LG0567-F671-PDC complex spheroids viability
Assay: Anticancer human tumor LG0567-F671-PDC patient-derived lung adenocarcinoma cell line growth inhibition [RAS]
Conditions: for IC50: curve of first compound; for viability, T/C: stronger effect = lower value
In short: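 Tumour cells grown as complex spheroids with HUVEC endothelial cells and mesenchymal stem cells, treated with RAS pathway inhibitor combinations. Each agent spans half-log steps from near clinical Cmax, or 10 microM where Cmax is unknown.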

[1] = second compound 0.00316 µM, first compound 0.0316 µM
[2] = second compound 0.00316 µM, first compound 0.1 µM
[3] = second compound 0.01 µM, first compound 0.0316 µM
[4] = second compound 0.01 µM, first compound 0.1 µM
[5] = second compound 0.0316 µM, first compound 0.0316 µM
[6] = second compound 0.0316 µM, first compound 0.1 µM
[7] = second compound 0.1 µM, first compound 0.0316 µM
[8] = second compound 0.1 µM, first compound 0.1 µM
[9] = second compound 0.316 µM, first compound 0.0316 µM
[10] = second compound 0.316 µM, first compound 0.1 µM
[11] = second compound 1 µM, first compound 0.0316 µM
[12] = second compound 1 µM, first compound 0.1 µM
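Further: spheroids exposed to compound for seven days before readout.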
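Wherever IC50 is given: luminescence signal used as a proxy for viable cells.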

IC50 (second compound 0.000949 µM): < 316 pM
IC50 (second compound 0.003 µM): < 316 pM
IC50 (second compound 0.00949 µM): < 316 pM
IC50 (second compound 0.03 µM): < 316 pM
IC50 (second compound 0.0949 µM): < 316 pM
IC50 (second compound 0.3 µM): < 316 pM
Compound: CC(C)n1nc(-c2ccc3oc(N)nc3c2)c2c(N)ncnc21 + CCn1c(-c2cccnc2C(C)OC)c2c3cc(ccc31)N1CCOC(CC(NC(=O)C(C(C)C)N(C)C(=O)C3(F)CCN(C(=O)C#CC(C)(C)N(C)C)CC3)C(=O)N3CCCC(N3)C(=O)OCC(C)(C)C2)C1
viability, T/C (second compound 0.000949 µM, first compound 0.000316 µM): 14.9%
viability, T/C (second compound 0.000949 µM, first compound 0.001 µM): 14.4%
viability, T/C (second compound 0.000949 µM, first compound 0.00316 µM): 12.2%
viability, T/C (second compound 0.000949 µM, first compound 0.01 µM): 9.49%
viability, T/C (second compound 0.000949 µM, first compound 0.0316 µM): 8.53%
viability, T/C (second compound 0.000949 µM, first compound 0.1 µM): 14.7%
viability, T/C (second compound 0.003 µM, first compound 0.000316 µM): 15.6%
viability, T/C (second compound 0.003 µM, first compound 0.001 µM): 12.4%
viability, T/C (second compound 0.003 µM, first compound 0.00316 µM): 12.5%
viability, T/C (second compound 0.003 µM, first compound 0.01 µM): 10.2%
viability, T/C (second compound 0.003 µM, first compound 0.0316 µM): 8.31%
viability, T/C (second compound 0.003 µM, first compound 0.1 µM): 13.6%
viability, T/C (second compound 0.00949 µM, first compound 0.000316 µM): 13.3%
viability, T/C (second compound 0.00949 µM, first compound 0.001 µM): 13.2%
viability, T/C (second compound 0.00949 µM, first compound 0.00316 µM): 13.3%
viability, T/C (second compound 0.00949 µM, first compound 0.01 µM): 10.2%
viability, T/C (second compound 0.00949 µM, first compound 0.0316 µM): 7.68%
viability, T/C (second compound 0.00949 µM, first compound 0.1 µM): 12.6%
viability, T/C (second compound 0.03 µM, first compound 0.000316 µM): 12%
viability, T/C (second compound 0.03 µM, first compound 0.001 µM): 14%
viability, T/C (second compound 0.03 µM, first compound 0.00316 µM): 11%
viability, T/C (second compound 0.03 µM, first compound 0.01 µM): 9.46%
viability, T/C (second compound 0.03 µM, first compound 0.0316 µM): 7.2%
viability, T/C (second compound 0.03 µM, first compound 0.1 µM): 11.5%
viability, T/C (second compound 0.0949 µM, first compound 0.000316 µM): 11.1%
viability, T/C (second compound 0.0949 µM, first compound 0.001 µM): 10.9%
viability, T/C (second compound 0.0949 µM, first compound 0.00316 µM): 9.2%
viability, T/C (second compound 0.0949 µM, first compound 0.01 µM): 7.52%
viability, T/C (second compound 0.0949 µM, first compound 0.0316 µM): 5.8%
viability, T/C (second compound 0.0949 µM, first compound 0.1 µM): 10.4%
viability, T/C (second compound 0.3 µM, first compound 0.000316 µM): 9.46%
viability, T/C (second compound 0.3 µM, first compound 0.001 µM): 8.59%
viability, T/C (second compound 0.3 µM, first compound 0.00316 µM): 8.57%
viability, T/C (second compound 0.3 µM, first compound 0.01 µM): 7.61%
viability, T/C (second compound 0.3 µM, first compound 0.0316 µM): 4.68%
viability, T/C (second compound 0.3 µM, first compound 0.1 µM): 8.47%

IC50 (second compound 0.00316 µM): < 31600 pM
IC50 (second compound 0.01 µM): < 31600 pM
IC50 (second compound 0.0316 µM): < 31600 pM
IC50 (second compound 0.1 µM): < 31600 pM
IC50 (second compound 0.316 µM): < 31600 pM
IC50 (second compound 1 µM): < 31600 pM
Compound: C[C@@H](NC(=O)c1ncnc(N)c1Cl)c1ncc(C(=O)Nc2cc(C(F)(F)F)c(Cl)cn2)s1 + C=CC(=O)N1CCN(c2nc(OCC3CCCN3C)nc3c(F)c(-c4nc(N)cc(C)c4C(F)(F)F)c(Cl)cc23)C(C)C1
viability, T/C [1]: 23%
viability, T/C [2]: 21.9%
viability, T/C (second compound 0.00316 µM, first compound 0.316 µM): 19.2%
viability, T/C (second compound 0.00316 µM, first compound 1 µM): 25.3%
viability, T/C (second compound 0.00316 µM, first compound 3.16 µM): 27.4%
viability, T/C (second compound 0.00316 µM, first compound 10 µM): 22.3%
viability, T/C [3]: 18.3%
viability, T/C [4]: 16.7%
viability, T/C (second compound 0.01 µM, first compound 0.316 µM): 24.5%
viability, T/C (second compound 0.01 µM, first compound 1 µM): 19.2%
viability, T/C (second compound 0.01 µM, first compound 3.16 µM): 22.8%
viability, T/C (second compound 0.01 µM, first compound 10 µM): 20.4%
viability, T/C [5]: 17.1%
viability, T/C [6]: 17.3%
viability, T/C (second compound 0.0316 µM, first compound 0.316 µM): 19.1%
viability, T/C (second compound 0.0316 µM, first compound 1 µM): 19.3%
viability, T/C (second compound 0.0316 µM, first compound 3.16 µM): 20.1%
viability, T/C (second compound 0.0316 µM, first compound 10 µM): 18%
viability, T/C [7]: 16.3%
viability, T/C [8]: 14.9%
viability, T/C (second compound 0.1 µM, first compound 0.316 µM): 15.8%
viability, T/C (second compound 0.1 µM, first compound 1 µM): 18.3%
viability, T/C (second compound 0.1 µM, first compound 3.16 µM): 19%
viability, T/C (second compound 0.1 µM, first compound 10 µM): 18.5%
viability, T/C [9]: 15.5%
viability, T/C [10]: 16.1%
viability, T/C (second compound 0.316 µM, first compound 0.316 µM): 16.2%
viability, T/C (second compound 0.316 µM, first compound 1 µM): 18.5%
viability, T/C (second compound 0.316 µM, first compound 3.16 µM): 22.2%
viability, T/C (second compound 0.316 µM, first compound 10 µM): 23%
viability, T/C [11]: 16.7%
viability, T/C [12]: 17.4%
viability, T/C (second compound 1 µM, first compound 0.316 µM): 20.4%
viability, T/C (second compound 1 µM, first compound 1 µM): 17.2%
viability, T/C (second compound 1 µM, first compound 3.16 µM): 19.8%
viability, T/C (second compound 1 µM, first compound 10 µM): 20.8%

Compound: CC(C)n1nc(-c2ccc3oc(N)nc3c2)c2c(N)ncnc21
viability, T/C (compound 0.000316 µM): 90.9% [middle of 4 runs]
viability, T/C (compound 0.001 µM): 88.4% [middle of 4 runs]
viability, T/C (compound 0.00316 µM): 86.1% [middle of 4 runs]
viability, T/C (compound 0.01 µM): 75.3% [middle of 4 runs]
viability, T/C (compound 0.0316 µM): 56.1% [middle of 4 runs]

IC50 (second compound 0.00316 µM): < 316 pM
IC50 (second compound 0.01 µM): < 316 pM
IC50 (second compound 0.0316 µM): < 316 pM
IC50 (second compound 0.1 µM): < 316 pM
IC50 (second compound 0.316 µM): < 316 pM
IC50 (second compound 1 µM): < 316 pM
Compound: CC(C)n1nc(-c2ccc3oc(N)nc3c2)c2c(N)ncnc21 + C=CC(=O)N1CCN(c2nc(OCC3CCCN3C)nc3c(F)c(-c4nc(N)cc(C)c4C(F)(F)F)c(Cl)cc23)C(C)C1
viability, T/C (second compound 0.00316 µM, first compound 0.000316 µM): 13.7%
viability, T/C (second compound 0.00316 µM, first compound 0.001 µM): 17.2%
viability, T/C (second compound 0.00316 µM, first compound 0.00316 µM): 11.4%
viability, T/C (second compound 0.00316 µM, first compound 0.01 µM): 9.86%
viability, T/C [1]: 7.75%
viability, T/C [2]: 6.24%
viability, T/C (second compound 0.01 µM, first compound 0.000316 µM): 12.6%
viability, T/C (second compound 0.01 µM, first compound 0.001 µM): 10.8%
viability, T/C (second compound 0.01 µM, first compound 0.00316 µM): 10.5%
viability, T/C (second compound 0.01 µM, first compound 0.01 µM): 7.96%
viability, T/C [3]: 7.27%
viability, T/C [4]: 4.67%
viability, T/C (second compound 0.0316 µM, first compound 0.000316 µM): 12.2%
viability, T/C (second compound 0.0316 µM, first compound 0.001 µM): 11.5%
viability, T/C (second compound 0.0316 µM, first compound 0.00316 µM): 9.25%
viability, T/C (second compound 0.0316 µM, first compound 0.01 µM): 10.8%
viability, T/C [5]: 6.75%
viability, T/C [6]: 4.77%
viability, T/C (second compound 0.1 µM, first compound 0.000316 µM): 11.1%
viability, T/C (second compound 0.1 µM, first compound 0.001 µM): 10.7%
viability, T/C (second compound 0.1 µM, first compound 0.00316 µM): 10.9%
viability, T/C (second compound 0.1 µM, first compound 0.01 µM): 8.59%
viability, T/C [7]: 7.47%
viability, T/C [8]: 4.81%
viability, T/C (second compound 0.316 µM, first compound 0.000316 µM): 11.6%
viability, T/C (second compound 0.316 µM, first compound 0.001 µM): 10.8%
viability, T/C (second compound 0.316 µM, first compound 0.00316 µM): 9.88%
viability, T/C (second compound 0.316 µM, first compound 0.01 µM): 7.87%
viability, T/C [9]: 6.07%
viability, T/C [10]: 4.55%
viability, T/C (second compound 1 µM, first compound 0.000316 µM): 14.2%
viability, T/C (second compound 1 µM, first compound 0.001 µM): 11.4%
viability, T/C (second compound 1 µM, first compound 0.00316 µM): 14.3%
viability, T/C (second compound 1 µM, first compound 0.01 µM): 10.9%
viability, T/C [11]: 7.1%
viability, T/C [12]: 5.83%
